Data from PubChem BioAssay AID492984 (Sanford-Burnham Center for Chemical Genomics, 2010).
The source made the active and inactive calls.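 Rule for the calls: active = IC50 below 20 µM in the dose response test; inactive = the rest.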

Biological target: Type-1 angiotensin II receptor (Homo sapiens) (UniProt P30556)
Experiment: AGTR1 antagonism selectivity check – cell-based, CHO-K1 PathHunter, luminescence, set 3, selectivity assay for APJ antagonist project, SAR follow-up (AID 492984)
Conditions: CHO-K1 AGTR1 PathHunter beta-arrestin

Type-1 angiotensin II receptor (Homo sapiens), sequence (P30556 whole entry, looked up): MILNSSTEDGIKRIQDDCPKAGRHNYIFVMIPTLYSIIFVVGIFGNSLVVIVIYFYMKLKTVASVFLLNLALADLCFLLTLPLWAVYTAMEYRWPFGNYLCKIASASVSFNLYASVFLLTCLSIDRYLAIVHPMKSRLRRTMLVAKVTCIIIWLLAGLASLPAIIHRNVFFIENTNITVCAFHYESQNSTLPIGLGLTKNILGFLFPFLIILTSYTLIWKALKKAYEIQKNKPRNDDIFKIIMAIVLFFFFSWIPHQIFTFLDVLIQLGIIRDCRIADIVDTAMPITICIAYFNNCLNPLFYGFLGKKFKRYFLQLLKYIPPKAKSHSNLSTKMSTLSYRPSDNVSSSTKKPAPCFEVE

For `Cc1ccnc(SCc2cc(=O)c(OC(=O)c3cccc(C#N)c3)co2)n1`, the IC50 was > 79 µM (inactive).
`Cc1ccnc(SCc2cc(=O)c(NC(=O)c3ccccc3)co2)n1` was tested, and the IC50 was > 79 µM (inactive).
With `O=C(Oc1coc(CCl)cc1=O)c1ccc(Cl)c([N+](=O)[O-])c1` the IC50 was > 79 µM (inactive).
With `Cc1cc(C)nc(SCc2cc(=O)c(OS(=O)(=O)c3ccc([N+](=O)[O-])cc3)co2)n1` the IC50 was > 79 µM (inactive).
With `Cc1cc(C)nc(SCc2cc(=O)c(OS(=O)(=O)c3ccccc3)co2)n1` the IC50 was > 79 µM (inactive).
With `O=c1cc(CSc2ccc(F)cc2)occ1O` the IC50 was > 79 µM (inactive).
`O=C(Oc1coc(CSc2ncccn2)cc1=O)c1ccc([N+](=O)[O-])cc1` was tested, and the IC50 was > 79 µM (inactive).
